Measured values reported in patent publication US9790178B2, “Pyrrolidinyl urea, thiourea, guanidine and cyanoguanidine compounds as TrkA kinase inhibitors” (Array BioPharma Inc., priority 2012, dated 2017).

Target: T1, His-tagged recombinant human TrkA (Homo sapiens, UniProt P04629)
T1 construct: 6HIS tagged cytoplasmic domain from Invitrogen, Catalog No. PV3144; purchased Invitrogen PV3144
Test: TrkA LanthaScreen Eu Kinase Binding Assay
Settings: averaged IC50 values; read-out: TrkA enzyme IC50
Method: TrkA binding activity was determined in a TrkA LanthaScreen™ Eu Kinase Binding Assay. 5 nM His-tagged recombinant human TrkA (6HIS tagged cytoplasmic domain from Invitrogen, Catalog No. PV3144) was incubated with 4 nM Alexa-Fluor® Tracer 236 (Invitrogen Cat. No. PV5592), 2 nM biotinylated anti-His (Invitrogen Cat. No. PV6090), and 2 nM europium-labeled Streptavidin (Invitrogen Cat. No. PV5899), in buffer (25 mM MOPS, pH 7.5, 5 mM MgCl2, 0.005% Triton X-100). Three fold serial dilutions of compounds of the invention in DMSO were added to a final percentage of 2% DMSO. After 60-minute incubation at 22° C., the reaction was measured using the EnVision mutlimode plate reader (PerkinElmer) via TR-FRET dual wavelength detection at […]. The percent of control was calculated using a ratiometric emission factor. The IC50 values were determined by fitting a four parameter model to the percent of control data.
Table A provides averaged IC50 values for compounds of the invention when tested in the assay of Example A, where A represents an averaged IC50 value <100 nM; and B represents an averaged IC50 value from 100 to 1,000 nM.

T1 sequence (P04629 440-796 limits assumed): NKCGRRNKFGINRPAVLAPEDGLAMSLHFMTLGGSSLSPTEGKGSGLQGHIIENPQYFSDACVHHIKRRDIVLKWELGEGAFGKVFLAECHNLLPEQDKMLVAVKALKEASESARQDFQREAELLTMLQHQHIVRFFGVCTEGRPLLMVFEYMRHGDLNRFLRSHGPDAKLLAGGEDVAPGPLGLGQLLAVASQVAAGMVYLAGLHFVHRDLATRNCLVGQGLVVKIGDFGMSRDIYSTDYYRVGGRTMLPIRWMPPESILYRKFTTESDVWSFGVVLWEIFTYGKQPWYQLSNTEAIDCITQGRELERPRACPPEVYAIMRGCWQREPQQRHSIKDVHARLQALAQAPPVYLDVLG

| IC50 [nM] | SMILES |
| --- | --- |
| < 100 | COCCN1C[C@@H](NC(=O)Nc2c(-c3ccccc3)nc3c(F)cccn23)[C@H](c2ccccc2)C1 [Example 18, 1-(8-fluoro-2-phenylimidazo[1,2-a]pyridin-3-yl)-3-((3S,4R)-1-(2-methoxyethyl)-4-phenylpyrrolidin-3-yl)urea] |
| < 100 | COCCN1C[C@@H](NC(=O)Nc2c(-c3ccccc3)nc3sccn23)[C@H](c2ccccc2)C1 (relative stereo) [Example 9, 1-((trans)-1-(2-methoxyethyl)-4-phenylpyrrolidin-3-yl)-3-(6-phenylimidazo[2,1-b]thiazol-5-yl)urea] |
| < 100 | COCCN1C[C@@H](NC(=O)Nc2c(-c3ccccc3)nc3c(C)nccn23)[C@H](c2ccccc2)C1 [Example 19, 1-((3S,4R)-1-(2-methoxyethyl)-4-phenylpyrrolidin-3-yl)-3-(8-methyl-2-phenylimidazo[1,2-a]pyrazin-3-yl)urea] |
| 100 to 1000 | COCCN1C[C@@H](NC(=O)Nc2c(-c3ccccc3)nc3sc(C)cn23)[C@H](c2ccccc2)C1 (relative stereo) [Example 5, 1-((trans)-1-(2-methoxyethyl)-4-phenylpyrrolidin-3-yl)-3-(2-methyl-6-phenylimidazo[2,1-b]thiazol-5-yl)urea] |
| < 100 | COCCN1C[C@@H](NC(=O)Nc2c(-c3ccccc3)nc3c(C)cccn23)[C@H](c2ccccc2)C1 [Example 15, 1-((3S,4R)-1-(2-methoxyethyl)-4-phenylpyrrolidin-3-yl)-3-(8-methyl-2-phenylimidazo[1,2-a]pyridin-3-yl)urea] |
| < 100 | COCCN1C[C@@H](NC(=O)Nc2c(-c3ccccc3)nc3cc(C)ccn23)[C@H](c2ccccc2)C1 (relative stereo) [Example 12, 1-((trans)-1-(2-methoxyethyl)-4-phenylpyrrolidin-3-yl)-3-(7-methyl-2-phenylimidazo[1,2-a]pyridin-3-yl)urea] |
| < 100 | COCCN1C[C@@H](NC(=O)Nc2c(-c3ccccc3)nc3c(C)nccn23)[C@H](c2ccc(F)cc2)C1 [Example 27, 1-((3S,4R)-4-(4-fluorophenyl)-1-(2-methoxyethyl)pyrrolidin-3-yl)-3-(8-methyl-2-phenylimidazo[1,2-a]pyrazin-3-yl)urea] |
| < 100 | COCCN1C[C@@H](NC(=O)Nc2c(-c3ccccc3)nc3ccc(F)cn23)[C@H](c2ccccc2)C1 (relative stereo) [Example 17, 1-(6-fluoro-2-phenylimidazo[1,2-a]pyridin-3-yl)-3-((trans)-1-(2-methoxyethyl)-4-phenylpyrrolidin-3-yl)urea] |
| < 100 | COCCN1C[C@@H](NC(=O)Nc2c(-c3ccccc3)nc3c(C)nccn23)[C@H](c2cc(F)cc(F)c2)C1 [Example 23, 1-((3S,4R)-4-(3,5-difluorophenyl)-1-(2-methoxyethyl)pyrrolidin-3-yl)-3-(8-methyl-2-phenylimidazo[1,2-a]pyrazin-3-yl)urea] |
| < 100 | COCCN1C[C@@H](NC(=O)Nc2cccc3c(-c4ccccc4)n[nH]c23)[C@H](c2ccccc2)C1 (relative stereo) [Example 4, 1-(trans-1-(2-methoxyethyl)-4-phenylpyrrolidin-3-yl)-3-(3-phenyl-1H-indazol-7-yl)urea] |
| 100 to 1000 | COCCN1C[C@@H](NC(=O)Nc2c(-c3ccccc3)nc3ccc(C)cn23)[C@H](c2ccccc2)C1 (relative stereo) [Example 13, 1-((trans)-1-(2-methoxyethyl)-4-phenylpyrrolidin-3-yl)-3-(6-methyl-2-phenylimidazo[1,2-a]pyridin-3-yl)urea] |
| < 100 | COCCN1C[C@@H](NC(=O)Nc2c(-c3ccccc3)nc3scnn23)[C@H](c2ccccc2)C1 (relative stereo) [Example 8, 1-((trans)-1-(2-methoxyethyl)-4-phenylpyrrolidin-3-yl)-3-(6-phenylimidazo[2,1-b][1,3,4]thiadiazol-5-yl)urea] |

Continued, compound first:

| SMILES | IC50 [nM] |
| --- | --- |
| CCn1ccn2c(NC(=O)N[C@@H]3CN(CCOC)C[C@H]3c3ccc(F)c(F)c3)c(-c3ccccc3)nc2c1=O [Example 25, 1-((3S,4R)-4-(3,4-difluorophenyl)-1-(2-methoxyethyl)pyrrolidin-3-yl)-3-(7-ethyl-8-oxo-2-phenyl-7,8-dihydroimidazo[1,2-a]pyrazin-3-yl)urea] | < 100 |
| COCCN1C[C@@H](NC(=O)NC2=C(c3ccccc3)C(=O)c3ccccc32)[C@H](c2ccc(F)c(F)c2)C1 [Example 28, 1-((3S,4R)-4-(3,4-difluorophenyl)-1-(2-methoxyethyl)pyrrolidin-3-yl)-3-(1-oxo-2-phenyl-1H-inden-3-yl)urea] | 100 to 1000 |
| COCCN1C[C@@H](NC(=O)Nc2c(-c3ccccc3)nc3c(=O)[nH]ccn23)[C@H](c2ccc(F)c(F)c2)C1 [Example 21, 1-((3S,4R)-4-(3,4-difluorophenyl)-1-(2-methoxyethyl)pyrrolidin-3-yl)-3-(8-oxo-2-phenyl-7,8-dihydroimidazo[1,2-a]pyrazin-3-yl)urea] | < 100 |
| COCCN1C[C@@H](NC(=O)Nc2c(-c3ccccc3)nc3ncccn23)[C@H](c2ccccc2)C1 (relative stereo) [Example 7, 1-((trans)-1-(2-methoxyethyl)-4-phenylpyrrolidin-3-yl)-3-(2-phenylimidazo[1,2-a]pyrimidin-3-yl)urea] | < 100 |
| COCCN1C[C@@H](NC(=O)Nc2c(-c3ccccc3)nc3c(Cl)cccn23)[C@H](c2ccccc2)C1 (relative stereo) [Example 14, 1-(8-chloro-2-phenylimidazo[1,2-a]pyridin-3-yl)-3-((trans)-1-(2-methoxyethyl)-4-phenylpyrrolidin-3-yl)urea] | < 100 |
| COCCN1C[C@@H](NC(=O)Nc2c(-c3ccccc3)nc3c(C)cccn23)[C@H](c2ccccc2)C1 (relative stereo) [Example 11, 1-((trans)-1-(2-methoxyethyl)-4-phenylpyrrolidin-3-yl)-3-(8-methyl-2-phenylimidazo[1,2-a]pyridin-3-yl)urea] | < 100 |
| COCCN1C[C@@H](NC(=O)Nc2ccc(C)c3cn[nH]c23)[C@H](c2ccccc2)C1 (relative stereo) [Example 2, 1-(trans-1-(2-methoxyethyl)-4-phenylpyrrolidin-3-yl)-3-(4-methyl-1H-indazol-7-yl)urea di-trifluoroacetate] | 100 to 1000 |
| COCCN1C[C@@H](NC(=O)Nc2cccc3cn[nH]c23)[C@H](c2ccccc2)C1 (relative stereo) [Example 1, 1-(1H-indazol-7-yl)-3-(trans-1-(2-methoxyethyl)-4-phenylpyrrolidin-3-yl)urea di-trifluoroacetate] | 100 to 1000 |
| COCCN1C[C@@H](NC(=O)Nc2c(-c3ccccc3)nc3c(=O)n(C)ccn23)[C@H](c2ccc(F)c(F)c2)C1 [Example 24, 1-((3S,4R)-4-(3,4-difluorophenyl)-1-(2-methoxyethyl)pyrrolidin-3-yl)-3-(7-methyl-8-oxo-2-phenyl-7,8-dihydroimidazo[1,2-a]pyrazin-3-yl)urea] | < 100 |
| COCCN1C[C@@H](NC(=O)Nc2c(-c3ccccc3)nc3ccccn23)[C@H](c2ccccc2)C1 (relative stereo) [Example 6, 1-((trans)-1-(2-methoxyethyl)-4-phenylpyrrolidin-3-yl)-3-(2-phenylimidazo[1,2-a]pyridin-3-yl)urea] | < 100 |
| COCCN1C[C@@H](NC(=O)Nc2c(-c3ccccc3)nc3c(OC)nccn23)[C@H](c2ccc(F)c(F)c2)C1 [Example 22, 1-((3S,4R)-4-(3,4-difluorophenyl)-1-(2-methoxyethyl)pyrrolidin-3-yl)-3-(8-methoxy-2-phenylimidazo[1,2-a]pyrazin-3-yl)urea] | < 100 |
| COCCN1C[C@@H](NC(=O)Nc2cccc3c(Br)n[nH]c23)[C@H](c2ccccc2)C1 (relative stereo) [Example 3, 1-(3-bromo-1H-indazol-7-yl)-3-(trans-1-(2-methoxyethyl)-4-phenylpyrrolidin-3-yl)urea] | < 100 |
| COCCN1C[C@@H](NC(=O)Nc2c(-c3ccccc3)nc3cnccn23)[C@H](c2ccccc2)C1 (relative stereo) [Example 10, 1-((trans)-1-(2-methoxyethyl)-4-phenylpyrrolidin-3-yl)-3-(2-phenylimidazo[1,2-a]pyrazin-3-yl)urea] | < 100 |
| COCCN1C[C@@H](NC(=O)Nc2c(-c3ccccc3)[nH]c3ccccc23)[C@H](c2ccccc2)C1 (relative stereo) [Example 26, 1-((trans)-1-(2-methoxyethyl)-4-phenylpyrrolidin-3-yl)-3-(2-phenyl-1H-indol-3-yl)urea] | < 100 |
| COCCN1C[C@@H](NC(=O)Nc2c(-c3ccccc3)nc3c(C(F)(F)F)cccn23)[C@H](c2ccccc2)C1 (relative stereo) [Example 16, 1-((trans)-1-(2-methoxyethyl)-4-phenylpyrrolidin-3-yl)-3-(2-phenyl-8-(trifluoromethyl)imidazo [1,2-a]pyridin-3-yl)urea] | < 100 |
